Organism: Rattus norvegicus
Test: Open TG-GATES - Regimen: Daily Repeat
Assay type: toxicity, organism-based, Sprague-Dawley
Parameters: regimen Daily Repeat, gender Male, age 6 weeks
Details: in vivo, po, route diet; for Hb / Ht / MCH / MCHC / MCV / Plat / RBC / Ret / WBC: tissue Blood; for KIDNEY_L / KIDNEY_R / KIDNEY_TOTAL: tissue Kidney; for LIVER: tissue Liver; for A/G / ALP / ALT / AST / BUN / CRE / Ca / Cl / DBIL / GLC / IP / K / LDH / Na / PL / RALB / TBIL / TC / TG / TP / gamma-GTP: tissue Plasma
[1] = 72 h, dose 0 %, dose level Control, time 3 day
[2] = 72 h, dose 9999 %, dose level High, time 3 day
[3] = […], dose 0 %, dose level Control, time 7 day
[4] = […], dose 0 %, dose level Control, time 14 day
[5] = […], dose 0 %, dose level Control, time 28 day
[6] = […], dose 9999 %, dose level High, time 7 day
[7] = […], dose 9999 %, dose level High, time 14 day
[8] = […], dose 9999 %, dose level High, time 28 day

CC(C)CCC[C@@H](C)[C@H]1CC[C@H]2[C@@H]3CC=C4C[C@@H](O)CC[C@]4(C)[C@H]3CC[C@]12C.C[C@H](CCC(=O)[O-])[C@H]1CC[C@@H]2[C@]1(C)[C@@H](O)C[C@@H]1[C@@]3(C)CC[C@@H](O)C[C@H]3C[C@@H](O)[C@@]21C.[Na+] [cholesterol + sodium cholate]
TERMINAL_BW [1]: 232.1 g | TERMINAL_BW [2]: 241.9 g | Hb [1]: 12.9 g/dL | Ht [1]: 35.6% | MCH [1]: 23.1 pg | MCHC [1]: 36.2% | MCV [1]: 63.7 fL | Plat [1]: 121.7 x10_4/uL | RBC [1]: 558.2 x10_4/ul | Ret [1]: 6.9% | WBC [1]: 5.6 x10_2/uL | Hb [2]: 12.6 g/dL | Ht [2]: 35% | MCH [2]: 22.5 pg | MCHC [2]: 35.9% | MCV [2]: 62.6 fL | Plat [2]: 107.6 x10_4/uL | RBC [2]: 559.2 x10_4/ul | Ret [2]: 7% | WBC [2]: 5.8 x10_2/uL | KIDNEY_L [1]: 1 g | KIDNEY_R [1]: 1 g | KIDNEY_TOTAL [1]: 2 g | KIDNEY_R [2]: 1.1 g | KIDNEY_TOTAL [2]: 2.1 g | LIVER [1]: 10.6 g | LIVER [2]: 12.1 g | A/G [1]: 1 | ALP [1]: 1907.2 IU/L | ALT [1]: 41.8 IU/L | AST [1]: 69 IU/L | BUN [1]: 17.8 mg/dL | CRE [1]: 0.2 mg/dL | Ca [1]: 10.6 mg/dL | Cl [1]: 102.1 meq/L | DBIL [1]: 0 mg/dL | GLC [1]: 176 mg/dL | IP [1]: 7.2 mg/dL | K [1]: 4.3 meq/L | LDH [1]: 113.2 IU/L | Na [1]: 139.7 meq/L | PL [1]: 161.4 mg/dL | RALB [1]: 2.9 g/dL | TBIL [1]: 0 mg/dL | TC [1]: 75 mg/dL | TG [1]: 106.9 mg/dL | TP [1]: 5.7 g/dL | gamma-GTP [1]: 0.9 IU/L | ALP [2]: 2118 IU/L | ALT [2]: 42.4 IU/L | AST [2]: 72.2 IU/L | BUN [2]: 20.4 mg/dL | Ca [2]: 10.8 mg/dL | Cl [2]: 101.4 meq/L | GLC [2]: 182.8 mg/dL | IP [2]: 7.7 mg/dL | K [2]: 4.5 meq/L | LDH [2]: 149.4 IU/L | Na [2]: 139.4 meq/L | PL [2]: 157.4 mg/dL | TC [2]: 187.2 mg/dL | TG [2]: 136.6 mg/dL | TP [2]: 5.9 g/dL | gamma-GTP [2]: 0.8 IU/L | TERMINAL_BW [3]: 274.4 g | TERMINAL_BW [4]: 313.6 g | TERMINAL_BW [5]: 422.8 g | TERMINAL_BW [6]: 281.4 g | TERMINAL_BW [7]: 337.1 g | TERMINAL_BW [8]: 433.7 g | Hb [3]: 13.2 g/dL | Ht [3]: 36.5% | MCH [3]: 22.4 pg | MCHC [3]: 36.1% | MCV [3]: 62.2 fL | Plat [3]: 127.7 x10_4/uL | RBC [3]: 587.8 x10_4/ul | Ret [3]: 5.5% | WBC [3]: 8.6 x10_2/uL | Hb [4]: 12.6 g/dL | Ht [4]: 38.3% | MCH [4]: 19.3 pg | MCHC [4]: 32.8% | MCV [4]: 58.7 fL | Plat [4]: 111.1 x10_4/uL | RBC [4]: 654 x10_4/ul | Ret [4]: 4.2% | WBC [4]: 44.3 x10_2/uL | Hb [5]: 13.3 g/dL | Ht [5]: 39.2% | MCH [5]: 18.8 pg | MCHC [5]: 33.9% | MCV [5]: 55.4 fL | Plat [5]: 101.1 x10_4/uL | RBC [5]: 707.2 x10_4/ul | Ret [5]: 3% | WBC [5]: 55.7 x10_2/uL | Hb [6]: 12.5 g/dL | Ht [6]: 34.9% | MCH [6]: 21.6 pg | MCHC [6]: 35.7% | MCV [6]: 60.7 fL | Plat [6]: 142.4 x10_4/uL | RBC [6]: 574.8 x10_4/ul | Ret [6]: 5.6% | WBC [6]: 7.3 x10_2/uL | Hb [7]: 11.8 g/dL | Ht [7]: 36% | MCH [7]: 19.1 pg | MCHC [7]: 32.7% | MCV [7]: 58.3 fL | Plat [7]: 148.5 x10_4/uL | RBC [7]: 617.4 x10_4/ul | Ret [7]: 4.7% | WBC [7]: 30.6 x10_2/uL | Hb [8]: 13.1 g/dL | Ht [8]: 39% | MCHC [8]: 33.6% | MCV [8]: 55.9 fL | Plat [8]: 116.2 x10_4/uL | RBC [8]: 698.8 x10_4/ul | Ret [8]: 3.2% | WBC [8]: 50.2 x10_2/uL | KIDNEY_L [3]: 1.1 g | KIDNEY_R [3]: 1.1 g | KIDNEY_TOTAL [3]: 2.2 g | KIDNEY_L [4]: 1.2 g | KIDNEY_R [4]: 1.2 g | KIDNEY_TOTAL [4]: 2.3 g | KIDNEY_L [5]: 1.4 g | KIDNEY_R [5]: 1.4 g | KIDNEY_TOTAL [5]: 2.8 g | KIDNEY_L [6]: 1.2 g | KIDNEY_R [6]: 1.2 g | KIDNEY_TOTAL [6]: 2.4 g | KIDNEY_L [7]: 1.3 g | KIDNEY_R [7]: 1.4 g | KIDNEY_TOTAL [7]: 2.6 g | KIDNEY_L [8]: 1.6 g | KIDNEY_R [8]: 1.6 g | KIDNEY_TOTAL [8]: 3.2 g | LIVER [3]: 12.4 g | LIVER [4]: 13.6 g | LIVER [5]: 17.9 g | LIVER [6]: 16.3 g | LIVER [7]: 18.6 g | LIVER [8]: 24.7 g | A/G [3]: 1 | ALP [3]: 1589.8 IU/L | ALT [3]: 34 IU/L | AST [3]: 67.4 IU/L | BUN [3]: 19.6 mg/dL | CRE [3]: 0.2 mg/dL | Ca [3]: 10.4 mg/dL | Cl [3]: 105.2 meq/L | DBIL [3]: 0 mg/dL | GLC [3]: 193.4 mg/dL | IP [3]: 7.3 mg/dL | K [3]: 4.4 meq/L | LDH [3]: 160.6 IU/L | Na [3]: 141.5 meq/L | PL [3]: 154.8 mg/dL | RALB [3]: 2.8 g/dL | TBIL [3]: 0 mg/dL | TC [3]: 75.4 mg/dL | TG [3]: 124.4 mg/dL | TP [3]: 5.7 g/dL | gamma-GTP [3]: 0.9 IU/L | A/G [4]: 1 | ALP [4]: 1612.2 IU/L | ALT [4]: 38.4 IU/L | AST [4]: 79.8 IU/L | BUN [4]: 18.5 mg/dL | CRE [4]: 0.2 mg/dL | Ca [4]: 10.5 mg/dL | Cl [4]: 103.4 meq/L | DBIL [4]: 0.002 mg/dL | GLC [4]: 203.6 mg/dL | IP [4]: 6.5 mg/dL | K [4]: 3.7 meq/L | LDH [4]: 284.8 IU/L | Na [4]: 141.8 meq/L | PL [4]: 139.4 mg/dL | RALB [4]: 2.9 g/dL | TBIL [4]: 0 mg/dL | TC [4]: 62.4 mg/dL | TG [4]: 145.6 mg/dL | TP [4]: 5.8 g/dL | gamma-GTP [4]: 1 IU/L | A/G [5]: 0.8 | ALP [5]: 1365 IU/L | ALT [5]: 31.4 IU/L | AST [5]: 56.2 IU/L | BUN [5]: 17.7 mg/dL | CRE [5]: 0.2 mg/dL | Ca [5]: 10.3 mg/dL | Cl [5]: 103.3 meq/L | DBIL [5]: 0.006 mg/dL | GLC [5]: 210.8 mg/dL | IP [5]: 6.4 mg/dL | K [5]: 4.2 meq/L | LDH [5]: 103.6 IU/L | Na [5]: 139 meq/L | PL [5]: 143.8 mg/dL | RALB [5]: 2.8 g/dL | TBIL [5]: 0 mg/dL | TC [5]: 68.2 mg/dL | TG [5]: 180.9 mg/dL | TP [5]: 6 g/dL | gamma-GTP [5]: 0.9 IU/L | A/G [6]: 0.9 | ALP [6]: 1845.8 IU/L | ALT [6]: 43.4 IU/L | AST [6]: 79.8 IU/L | BUN [6]: 18.6 mg/dL | Ca [6]: 10.7 mg/dL | Cl [6]: 103.2 meq/L | GLC [6]: 190 mg/dL | IP [6]: 7.6 mg/dL | K [6]: 4.5 meq/L | LDH [6]: 179.4 IU/L | Na [6]: 140.8 meq/L | PL [6]: 174 mg/dL | RALB [6]: 3 g/dL | TC [6]: 181 mg/dL | TG [6]: 141.6 mg/dL | TP [6]: 6.2 g/dL | gamma-GTP [6]: 1.1 IU/L | A/G [7]: 0.8 | ALP [7]: 1718.2 IU/L | ALT [7]: 35.4 IU/L | AST [7]: 68 IU/L | BUN [7]: 18.4 mg/dL | Ca [7]: 10.8 mg/dL | Cl [7]: 101.7 meq/L | DBIL [7]: 0 mg/dL | GLC [7]: 200.2 mg/dL | IP [7]: 6.7 mg/dL | K [7]: 4.2 meq/L | LDH [7]: 181.2 IU/L | Na [7]: 141.2 meq/L | PL [7]: 142.8 mg/dL | TC [7]: 158.2 mg/dL | TG [7]: 121.9 mg/dL | TP [7]: 6.5 g/dL | gamma-GTP [7]: 1.1 IU/L | ALP [8]: 1155 IU/L | ALT [8]: 34.6 IU/L | AST [8]: 62.8 IU/L | BUN [8]: 16.6 mg/dL | Ca [8]: 10.7 mg/dL | Cl [8]: 100.9 meq/L | DBIL [8]: 0 mg/dL | GLC [8]: 194 mg/dL | IP [8]: 6.5 mg/dL | K [8]: 3.9 meq/L | LDH [8]: 135 IU/L | Na [8]: 140.2 meq/L | PL [8]: 146.2 mg/dL | RALB [8]: 3 g/dL | TC [8]: 147.6 mg/dL | TG [8]: 120.2 mg/dL | TP [8]: 6.8 g/dL

Source: ChEMBL document CHEMBL3885861, “Open TG-GATES”
